Results: patent US20250129055A1, “GLUCOSIDE DERIVATIVE, AND PREPARATION METHOD THEREFOR AND APPLICATION THEREOF” (BEIJING INCREASE INNOVATIVE DRUG CO., LTD., priority 2020, published 2025)
Like-named read-outs stand apart in the source and are kept apart here.

Experiments:
Alloxan diabetic mice = assay: Efficacy in Alloxan diabetes model mice; format: in vivo; conditions: for HbA1c: 32nd day; for Concentration of blood glucose 2 h: 2 h after administration; for Concentration of blood glucose 4 h: 4 h after administration; for Concentration of blood glucose 8 h: 8 h after administration; for Concentration of blood glucose 24 h: 24 h after administration; for Concentration of blood glucose 0 h: before administration; for Concentration of blood glucose (random): random blood glucose on the 28th day
Method: Test Example 3 Research on efficacy of the compounds of the present invention in in vivo anti-Alloxan diabetes model mice
Alloxan diabetes mice were used. Normal ICR mice (male, 22-24 g) were randomly divided into groups including normal group, model group (con), positive control group and test compound groups with four different doses (n=11), and the mice without injection of Alloxan were in a normal control group (n=10).
Mice were administered with drugs by gavage.
Single administration: Mice were fasted for 3 h, and then the fasting blood (0 min) was collected. Then the mice in each group were administered with drugs by gavage. After 1 h, they were administered with a glucose ([…]) solution. Blood was collected at 30 min, 60 min, 120 min, and 180 min after the glucose administration. The blood glucose level was measured using glucose oxidase-peroxidase method, and the area under the blood glucose curve was calculated.
On the 6th day of continuous administration, under the condition of no fasting, blood samples were collected from mice before administration (0 h), 1 h, 2 h, 4 h, 8 h and 24 h after administration to measure blood glucose.
On the 9th day of continuous administration, the mice were fasted for 1 h and then administered with drugs by gavage. An oral glucose tolerance test (OGTT) was performed 1 h after administration.
On the 16th day of continuous administration, under the condition of no fasting, urine samples were collected from mice 1 h after administration to measure the concentration of urine glucose.
On the 22nd day of continuous administration, the mice were fasted for 1 h and then administered with drugs by gavage, and blood samples were collected to measure the fasting blood glucose 1 h after administration.
On the 28th day of continuous administration, under the condition of no fasting, blood samples were collected from mice 1 h after administration to measure the random blood glucose.
On the 32nd day of continuous administration, under the condition of no fasting, blood samples were collected from mice to measure glycosylated hemoglobin (HbA1c).
The data were expressed as mean±SEM (n=10-11). The comparison between multiple groups was performed by one-way analysis of variance, and the comparison between two groups was performed by Dunnett's t test. Statistical graphing was performed using Graphpad Prism software.

mice = conditions: mouse, in vivo, 3000 mg/kg; for Deaths D 1: 1 day; for Deaths D 2: 2 day; for Deaths D 3: 3 day; for Deaths D 4: 4 day; for Deaths D 5: 5 day; for Deaths D 6: 6 day; for Deaths D 7: 7 day; for Death rate (%): 7 days
Method: Test Example 5 Research on Safety of the Compounds of the Present Invention
The compounds of the present invention were subjected to the following acute toxicity studies in mice.
The symptoms of toxicity reaction and death time were recorded.
On the day before administration, the animals were fasted but provided with water for 17 h. Each test drug group was administered with the corresponding test drug once by gavage, and the blank control group was administered with the same dose of vehicle once by gavage.

[1] = 0.25 mg/kg, OGTT on the 9th day
[2] = 0.25 mg/kg, non-fasting, 6th day
[3] = 0.5 mg/kg, non-fasting, 6th day
[4] = 1.0 mg/kg, non-fasting, 6th day
[5] = 2.0 mg/kg, non-fasting, 6th day

CS[C@H]1O[C@@H](c2ccc(C)c(Cc3ccc4c(c3)OCCO4)c2)[C@H](O)[C@@H](O)[C@@H]1O (stereo in doubt) [Compound 2, 2-[3-(2,3-dihydro-1,4-benzodioxin-6-ylmethyl)-4-methylphenyl]-6-(methylthio)oxane-3,4,5-triol]
Concentration of fasting blood glucose, the 9th day (Alloxan diabetic mice; 0.25 mg/kg): 307.7 ± 23.1 mg/dL | Concentration of fasting blood glucose, the 22nd day (Alloxan diabetic mice; 0.25 mg/kg): 305.6 ± 16.5 mg/dL | HbA1c (Alloxan diabetic mice; 0.25 mg/kg): 7.2 ± 0.4% | AUC of blood glucose (Alloxan diabetic mice; [1]): 541.5 ± 22.8 mg·h/dL | Concentration of blood glucose 0 min (Alloxan diabetic mice; [1]): 307.7 ± 23.1 mg/dL | Concentration of blood glucose 30 min (Alloxan diabetic mice; [1]): 303.0 ± 8.6 mg/dL | Concentration of blood glucose 60 min (Alloxan diabetic mice; [1]): 268.5 ± 13.5 mg/dL | Concentration of blood glucose 120 min (Alloxan diabetic mice; [1]): 223.4 ± 11.6 mg/dL | AUC of blood glucose (Alloxan diabetic mice; 0.25 mg/kg, non-fasting, 6th day, 0-24 h): 12051 ± 437.8 mg·h/dL | Concentration of blood glucose 1 h (Alloxan diabetic mice; 0.25 mg/kg, non-fasting, 6th day, 1 h after administration): 458.4 ± 25.2 mg/dL | Concentration of blood glucose 2 h (Alloxan diabetic mice; [2]): 430.7 ± 31.3 mg/dL | Concentration of blood glucose 4 h (Alloxan diabetic mice; [2]): 404.3 ± 33.8 mg/dL | Concentration of blood glucose 8 h (Alloxan diabetic mice; [2]): 478.2 ± 23.3 mg/dL | Concentration of blood glucose 24 h (Alloxan diabetic mice; [2]): 585.3 ± 17.9 mg/dL | Concentration of blood glucose 0 h (Alloxan diabetic mice; [2]): 540.1 ± 20.1 mg/dL | Concentration of blood glucose (random) (Alloxan diabetic mice; 0.25 mg/kg): 491.1 ± 26.5 mg/dL | Concentration of fasting blood glucose, the 9th day (Alloxan diabetic mice; 0.5 mg/kg): 249.7 ± 14.7 mg/dL | Concentration of fasting blood glucose, the 22nd day (Alloxan diabetic mice; 0.5 mg/kg): 236.0 ± 13.7 mg/dL | HbA1c (Alloxan diabetic mice; 0.5 mg/kg): 6.1 ± 0.4 % | AUC of blood glucose (Alloxan diabetic mice; 0.5 mg/kg, OGTT on the 9th day): 468.3 ± 18.1 mg·h/dL | Concentration of blood glucose 0 min (Alloxan diabetic mice; 0.5 mg/kg, OGTT on the 9th day): 249.7 ± 14.7 mg/dL | Concentration of blood glucose 30 min (Alloxan diabetic mice; 0.5 mg/kg, OGTT on the 9th day): 290.3 ± 13.0 mg/dL | Concentration of blood glucose 60 min (Alloxan diabetic mice; 0.5 mg/kg, OGTT on the 9th day): 231.0 ± 10.1 mg/dL | Concentration of blood glucose 120 min (Alloxan diabetic mice; 0.5 mg/kg, OGTT on the 9th day): 175.0 ± 12.0 mg/dL | AUC of blood glucose (Alloxan diabetic mice; 0.5 mg/kg, non-fasting, 6th day, 0-24 h): 12059 ± 372.3 mg·h/dL | Concentration of blood glucose 1 h (Alloxan diabetic mice; 0.5 mg/kg, non-fasting, 6th day, 1 h after administration): 488.6 ± 15.9 mg/dL | Concentration of blood glucose 2 h (Alloxan diabetic mice; [3]): 474.7 ± 18.1 mg/dL | Concentration of blood glucose 4 h (Alloxan diabetic mice; [3]): 386.0 ± 21.8 mg/dL | Concentration of blood glucose 8 h (Alloxan diabetic mice; [3]): 473.9 ± 28.2 mg/dL | Concentration of blood glucose 24 h (Alloxan diabetic mice; [3]): 585.6 ± 15.0 mg/dL | Concentration of blood glucose 0 h (Alloxan diabetic mice; [3]): 551.9 ± 18.2 mg/dL | Concentration of blood glucose (random) (Alloxan diabetic mice; 0.5 mg/kg): 437.9 ± 23.9 mg/dL | Concentration of fasting blood glucose, the 9th day (Alloxan diabetic mice; 1.0 mg/kg): 201.2 ± 11.4 mg/dL | Concentration of fasting blood glucose, the 22nd day (Alloxan diabetic mice; 1.0 mg/kg): 224.4 ± 17.6 mg/dL | HbA1c (Alloxan diabetic mice; 1.0 mg/kg): 5.9 ± 0.6 % | AUC of blood glucose (Alloxan diabetic mice; 1.0 mg/kg, OGTT on the 9th day): 410.6 ± 15.6 mg·h/dL | Concentration of blood glucose 0 min (Alloxan diabetic mice; 1.0 mg/kg, OGTT on the 9th day): 201.2 ± 11.4 mg/dL | Concentration of blood glucose 30 min (Alloxan diabetic mice; 1.0 mg/kg, OGTT on the 9th day): 253.9 ± 7.7 mg/dL | Concentration of blood glucose 60 min (Alloxan diabetic mice; 1.0 mg/kg, OGTT on the 9th day): 205.3 ± 9.8 mg/dL | Concentration of blood glucose 120 min (Alloxan diabetic mice; 1.0 mg/kg, OGTT on the 9th day): 158.6 ± 8.8 mg/dL | AUC of blood glucose (Alloxan diabetic mice; 1.0 mg/kg, non-fasting, 6th day, 0-24 h): 10310 ± 308.4 mg·h/dL | Concentration of blood glucose 1 h (Alloxan diabetic mice; 1.0 mg/kg, non-fasting, 6th day, 1 h after administration): 417.1 ± 14.8 mg/dL | Concentration of blood glucose 2 h (Alloxan diabetic mice; [4]): 409.8 ± 16.7 mg/dL | Concentration of blood glucose 4 h (Alloxan diabetic mice; [4]): 323.8 ± 16.1 mg/dL | Concentration of blood glucose 8 h (Alloxan diabetic mice; [4]): 368.3 ± 19.4 mg/dL | Concentration of blood glucose 24 h (Alloxan diabetic mice; [4]): 550.3 ± 17.0 mg/dL | Concentration of blood glucose 0 h (Alloxan diabetic mice; [4]): 444.1 ± 19.2 mg/dL | Concentration of blood glucose (random) (Alloxan diabetic mice; 1.0 mg/kg): 395.8 ± 24.1 mg/dL | Concentration of fasting blood glucose, the 9th day (Alloxan diabetic mice; 2.0 mg/kg): 184.9 ± 18.3 mg/dL | Concentration of fasting blood glucose, the 22nd day (Alloxan diabetic mice; 2.0 mg/kg): 211.9 ± 17.8 mg/dL | HbA1c (Alloxan diabetic mice; 2.0 mg/kg): 6.0 ± 0.4 % | AUC of blood glucose (Alloxan diabetic mice; 2.0 mg/kg, OGTT on the 9th day): 393.9 ± 25.6 mg·h/dL | Concentration of blood glucose 0 min (Alloxan diabetic mice; 2.0 mg/kg, OGTT on the 9th day): 184.9 ± 18.3 mg/dL | Concentration of blood glucose 30 min (Alloxan diabetic mice; 2.0 mg/kg, OGTT on the 9th day): 246.0 ± 11.7 mg/dL | Concentration of blood glucose 60 min (Alloxan diabetic mice; 2.0 mg/kg, OGTT on the 9th day): 205.1 ± 12.6 mg/dL | Concentration of blood glucose 120 min (Alloxan diabetic mice; 2.0 mg/kg, OGTT on the 9th day): 141.7 ± 14.6 mg/dL | AUC of blood glucose (Alloxan diabetic mice; 2.0 mg/kg, non-fasting, 6th day, 0-24 h): 11326 ± 225.5 mg·h/dL | Concentration of blood glucose 1 h (Alloxan diabetic mice; 2.0 mg/kg, non-fasting, 6th day, 1 h after administration): 414.1 ± 18.3 mg/dL | Concentration of blood glucose 2 h (Alloxan diabetic mice; [5]): 460.2 ± 15.0 mg/dL | Concentration of blood glucose 4 h (Alloxan diabetic mice; [5]): 390.6 ± 28.2 mg/dL | Concentration of blood glucose 8 h (Alloxan diabetic mice; [5]): 434.0 ± 18.8 mg/dL | Concentration of blood glucose 24 h (Alloxan diabetic mice; [5]): 559.3 ± 10.4 mg/dL | Concentration of blood glucose 0 h (Alloxan diabetic mice; [5]): 473.0 ± 16.2 mg/dL | Concentration of blood glucose (random) (Alloxan diabetic mice; 2.0 mg/kg): 391.2 ± 26.0 mg/dL | Duration of hypoglycemic effect (Alloxan diabetic mice; 6th day, dapagliflozin 2.0 mg/kg, Compound 2 0.25-2.0 mg/kg): still had a good hypoglycemic effect after 8-24 h | Concentration of urine glucose (Alloxan diabetic mice; continuous administration for 16 days, 0.25-2.0 mg/kg, non-fasting, 1 h after administration): significantly increase | Effect on body weight, food intake and water intake (Alloxan diabetic mice; continuous administration for 22 days, 0.25-2.0 mg/kg): no obvious effect | Blood glucose level and AUC after glucose administration (Alloxan diabetic mice; single administration, 0.25, 0.5, 1.0 and 2.0 mg/kg): significantly lower | Deaths D 1 (mice; female): 0 | Deaths D 2 (mice; female): 0 | Deaths D 3 (mice; female): 0 | Deaths D 4 (mice; female): 0 | Deaths D 5 (mice; female): 0 | Deaths D 6 (mice; female): 0 | Deaths D 7 (mice; female): 0 | Death rate (%) (mice; female): 0% | Deaths D 1 (mice; male): 0 | Deaths D 2 (mice; male): 0 | Deaths D 3 (mice; male): 0 | Deaths D 4 (mice; male): 1 | Deaths D 5 (mice; male): 0 | Deaths D 6 (mice; male): 1 | Deaths D 7 (mice; male): 0 | Death rate (%) (mice; male): 40%
